# Test results taken from PMC7904550, “Application of grouping and read-across for the evaluation of parabens of different chain lengths with a particular focus on endocrine properties” (Archives of Toxicology, 2021).
# What was measured:
# [1] = system: Wistar rats; experiment: 90-day repeated dose oral toxicity study (OECD TG 408); assay type: in vivo, rat; conditions: for NOAEL, 90-day repeated-dose toxicity: OECD 408 v 2018, oral gavage
# Text: Healthy and specific pathogen-free male and female (non-pregnant and nulliparous) Wistar Crl: WI(Han) rats were obtained from Charles River Laboratories (Germany). […] Upon arrival at BSL BIOSERVICE, the animals underwent an acclimatisation period of at least 5 days, and they were approximately 15–16 weeks old at the onset of the treatment period.
# [2] = system: Wistar rats; experiment: Higher-tier studies taken together (OECD TG 408, 414, 421/422, 443): NOAEL; conditions: over all higher-tier studies
# Method: All in vivo studies were conducted as oral gavage studies, selecting the oral route as most appropriate route of administration to reflect the worst-case exposure scenario. […] The OECD TG 443 included mating of first generation (F1) offspring to produce a second generation (F2), and the DIT and DNT cohorts.
smiles,measurement,setting,value
"COC(=O)c1ccc(O)cc1 [Methyl paraben, Methyl 4-hydroxybenzoate]","NOAEL, 90-day repeated-dose toxicity",[1],NOAEL: 1000 (OECD 408; v 2018) mg/kg body weight/day
same,"NOAEL, 90-day repeated-dose toxicity",[1]; listed as methyl paraben,1000 mg/kg body weight/day
same,Accessory sex organs HP,[1]; P0,NAE / NAE
same,Adrenals HP,[1]; P0,NAE / NAE
same,Adrenals weight,[1]; P0,NAE / NAE
same,Brain weight,[1]; P0,NAE / NAE
same,Cervix HP,[1]; P0,NAE / NAE
same,Coagulating gland HP,[1]; P0,NAE / NAE
same,Coagulating gland weight,[1]; P0,NAE / NAE
same,Epididymis HP,[1]; P0,NAE / NAE
same,Epididymis weight,[1]; P0,NAE / NAE
same,Liver weight,[1]; P0,NAE / NAE
same,Mammary gland HP; females,[1]; P0,NAE / NAE
same,Mammary gland HP; males,[1]; P0,NAE / NAE
same,Oestrus cyclicity,[1]; P0,NAE / NAE
same,Ovary HP,[1]; P0,NAE / NAE
same,Ovary weight,[1]; P0,NAE / NAE
same,Oviduct HP,[1]; P0,NAE / NAE
same,Pituitary HP,[1]; P0,NAE / NAE
same,Pituitary weight,[1]; P0,NAE / NAE
same,Prostate HP,[1]; P0,NAE / NAE
same,Prostate weight,[1]; P0,NAE / NAE
same,Seminal vesicles HP,[1]; P0,NAE / NAE
same,Seminal vesicles weight,[1]; P0,NAE / NAE
same,Testis HP,[1]; P0,NAE / NAE
same,Testis weight,[1]; P0,NAE / NAE
same,Thyroid HP,[1]; P0,NAE / NAE
same,Thyroid stimulating hormone level,[1]; P0,NAE / NAE
same,Thyroid weight,[1]; P0,NAE / NAE
same,Triiodothyronine / thyroxine level,[1]; P0,NAE / NAE
same,Uterus HP (with cervix),[1]; P0,NAE / NAE
same,Uterus weight (with cervix),[1]; P0,NAE / NAE
same,Vagina HP,[1]; P0,NAE / NAE
same,Vaginal smears,[1]; P0,NAE / NAE
same,Signs of systemic toxicity,[1]; sub-chronic (90-day) oral application,did not induce any signs of systemic toxicity
same,NOAEL: Accessory sex organs HP,[2],1000 / 1000 mg/kg bw/day
same,NOAEL: Adrenals HP,[2],1000 / 1000 mg/kg bw/day
same,NOAEL: Adrenals weight,[2],1000 / 1000 mg/kg bw/day
same,NOAEL: Age at balano-preputial separation,[2],1000 / 1000 mg/kg bw/day
same,NOAEL: Age at vaginal opening,[2],1000 / 1000 mg/kg bw/day
same,NOAEL: Anogenital distance,[2],1000 / 1000 mg/kg bw/day
same,NOAEL: Auditory startle,[2],1000 / 1000 mg/kg bw/day
same,NOAEL: Brain HP,[2],1000 / 1000 mg/kg bw/day
same,NOAEL: Brain morphometric evaluation,[2],1000 / 1000 mg/kg bw/day
same,NOAEL: Brain weight,[2],1000 / 1000 mg/kg bw/day
same,NOAEL: Cervix HP,[2],1000 / 1000 mg/kg bw/day
same,NOAEL: Coagulating gland HP,[2],1000 / 1000 mg/kg bw/day
same,NOAEL: Coagulating gland weight,[2],1000 / 1000 mg/kg bw/day
same,NOAEL: Colloid area (thyroid HP),[2],1000 / 1000 mg/kg bw/day
same,NOAEL: Dystocia,[2],1000 / 1000 mg/kg bw/day
same,NOAEL: Epididymis HP,[2],1000 / 1000 mg/kg bw/day
same,NOAEL: Epididymis weight,[2],1000 / 1000 mg/kg bw/day
same,NOAEL: Fertility,[2],1000 / 1000 mg/kg bw/day
same,NOAEL: Foetal development,[2],1000 / 1000 mg/kg bw/day
same,NOAEL: Functional observation battery,[2],1000 / 1000 mg/kg bw/day
same,NOAEL: Genital abnormalities,[2],1000 / 1000 mg/kg bw/day
same,NOAEL: Gestation length,[2],1000 / 1000 mg/kg bw/day
same,NOAEL: Litter / pup weight,[2],1000 / 1000 mg/kg bw/day
same,NOAEL: Litter size,[2],1000 / 1000 mg/kg bw/day
same,NOAEL: Litter viability,[2],1000 / 1000 mg/kg bw/day
same,NOAEL: Liver weight,[2],1000 / 1000 mg/kg bw/day
same,NOAEL: Mammary gland HP; females,[2],1000 / 1000 mg/kg bw/day
same,NOAEL: Mammary gland HP; males,[2],1000 / 1000 mg/kg bw/day
same,NOAEL: Motor activity,[2],1000 / 1000 mg/kg bw/day
same,NOAEL: Nipple development,[2],1000 / 1000 mg/kg bw/day
same,"NOAEL: No. of implantations, corpora lutea",[2],1000 / 1000 mg/kg bw/day
same,NOAEL: No. of live births,[2],1000 / 1000 mg/kg bw/day
